Assay results reported in publication PMC12292862 (Biomedicines, 2025).
≈ marks a conversion by molar mass, not a printed value. Entries after “also recorded” stand apart in the source; their conditions may differ. Marks after values point to notes of the source that are not given here.

How the values were obtained:
COX-2 = assay: In vitro colorimetric COX (ovine) inhibitor-screening assay, COX-2; assay type: biochemical; details: ovine COX-2, tested at 50, 100 and 150 µg/mL
Description: The test compounds’ ability to suppress COX-1 and COX-2 was evaluated using a colorimetric COX (ovine) inhibitor-screening method (Cayman Chemical, Item Number 760111). In brief, 150 μL of assay buffer, 10 μL of heme, 10 μL of enzyme (COX-1 or COX-2), and 10 μL of compound (1 mg/mL) make up the reaction mixture. In a final volume of […], the test compounds were evaluated at doses of 50, 100, and 150 μg/mL. The cyclooxygenase peroxidase component is used in the experiment. By monitoring the appearance of oxidized N, N, […] (TMPD) at 590 nm, the peroxidase activity is measured […]. […] The following formula was used to determine the % COX inhibition: The COX inhibition activity percentage is equal to (1 − T/C ×100), where T is the inhibitor well’s absorbance and C is the starting activity’s absorbance at 100% without the inhibitor well.

[1] = Cell viability and cytotoxicity (MTT assay); assay type: cell-based, human; details: human, WI-38 human lung fibroblast cells, WI-38 cells; for IC50: 31.25 to 1000 µg/mL
Description: (§1) The cell lines were obtained from VACSERA—Holding Company for Biological Products and Vaccines, Cairo, Egypt. A 96-well tissue culture plate was seeded with 1 × 10^5 cells/mL (Wl-38 cells) from the human lung fibroblast cell line, adding 100 µL per well, and incubated at 37 °C with 5% CO2 for 24 h to allow the formation of a confluent monolayer. Following incubation, the growth medium was aspirated, and the cell monolayers were washed twice with wash medium to remove residual serum. Serial two-fold dilutions of the test compound were prepared in RPMI-1640 supplemented with 2% fetal bovine serum. Each dilution (100 µL) was added to the designated wells, while three wells served as negative controls and received only maintenance medium. The plate was incubated at 37 °C for an appropriate duration, during which cellular morphology was monitored for signs of cytotoxicity, including monolayer disruption, cell rounding, shrinkage, or granulation. MTT solution (5 mg/mL in PBS) was prepared, and 20 µL was added to each well. The plate was briefly agitated at 150 rpm for 5 min and then incubated for 4 h at 37 °C to allow viable cells to metabolize MTT into insoluble formazan crystals. After incubation, the supernatant was carefully removed, and 200 µL of DMSO was added to each well to solubilize the formazan. The plates were agitated again at 150 rpm for 5 min, and the absorbance was measured at 560 nm with background subtraction at 620 nm. The resulting optical density values were directly proportional to the number of viable cells.
(§2) The information was presented as the mean ± SD of the volume difference (mL) between the control and carrageenan-treated paws. One-way analysis of variance (ANOVA) was used to analyze the experimental groups’ data, and a Tukey post hoc test was then performed. p < 0.05 was considered significant. The IC50 values were calculated using Microsoft Excel by plotting a dose–response curve between compound concentration and cell viability percentage. A linear regression or logarithmic trendline was fitted to the data points, depending on the curve behavior.

[2] = system: WI-38 human lung fibroblast cells; assay: Cell viability and cytotoxicity (MTT assay); assay type: cell-based; details: WI-38 cells; morphology
Description: as §1, §2

Wistar rats = assay: Acute toxicity pilot study (OECD 423); assay type: in vivo; details: rat, i.p., 200 mg/kg
Description: According to OECD guidelines (Testing of Chemical Number 423), the study was carried out. In this study, mature male Wistar rats in good health were selected. After a 24 h fast, the animals were divided into groups of six. The test compounds were injected intraperitoneally at dosages ranging from 100 mg to 2000 mg per kilogram, dissolved in 2% Tween 80 saline solutions (v/v). The animals in the control groups were given just the vehicle, which was Tween 80 in 0.9% normal saline. […] Thus, 200 mg/kg (ED 50), which is considered one-tenth of the LD 50, was chosen as the anti-inflammatory dose.

IL-1α = assay: Serum IL-1α (ELISA) in carrageenan-injected rats; assay type: in vivo, rat; details: compounds 200 mg/kg i.p., indomethacin 10 mg/kg, mean ± SD
Description: (§3) The selective pro-inflammatory cytokines were measured quantitatively using rat-specific Enzyme-Linked Immunosorbent Assay (ELISA) kits from Thermo Scientific™ (Waltham, MA, USA) with CAT. No. ERCRP for CRP; from Elabscience with Cat. No. E-EL-R2856 for TNF-α and with Cat. No. E-EL-R0011 for IL-1α; from CUSABIO, Houston, TX, USA, with Cat. No. CSB-E04640r for IL-6; and from My BioSource Co, USA, with Cat. No. MBS825017 for IL-1β, with Cat. No. MBS753621 for rat cyclooxygenase 1, and with Cat. No. MBS266603 for rat cyclooxygenase 2. Meanwhile, an ovine COX inhibitor-screening in vitro assay (item number 760111) was obtained from Cayman Chemical (Ann Arbor, MI, USA). We purchased malondialdehyde (MDA), glutathione (GSH), and superoxide dismutase (SOD) detection kits from Nanjing Jiancheng Bio-Technology Co. Ltd. (Nanjing, China).
(§4) At the end of the experiments, the rats were subjected to anesthesia with chloroform and then sacrificed. Blood was obtained via heart puncture for biochemical analysis. Following the animals’ sacrifice, the paws were taken out, decalcified, and stored in a 10% formalin solution. To prepare the tissue samples, they were sliced into thicknesses of 5 µm. Hematoxylin and eosin dyes were used to create the histology slides, which were then examined using a photomicroscope (Meiji Techno®, Iruma, Japan) for pathological alterations. The presence of inflammation was documented. Protease/phosphatase inhibitor cocktail in cold phosphate-buffered saline (1:4) (pH 7, 0.01 mol/L) (Cat. No. PPC1010, Sigma-Aldrich) was used to homogenize each rat’s paw piece in a glass homogenizer. After filtering and centrifuging the resultant homogenate for five minutes at 5000× g, oxidative stress biomarkers like GSH, SOD, and MDA were measured. The trials were repeated three times.

IL-6 = assay: Serum IL-6 (ELISA) in carrageenan-injected rats; assay type: in vivo, rat; details: compounds 200 mg/kg i.p., indomethacin 10 mg/kg, mean ± SD
Description: as §3, §4

malondialdehyde (MDA) = assay: Paw tissue oxidative stress biomarker MDA; assay type: in vivo, rat; details: carrageenan rats, 200 mg/kg i.p.
Description: as §3, §4

rat cyclooxygenase 1 = assay: COX-1 level in carrageenan-injected paw (ELISA); assay type: in vivo; details: compounds 200 mg/kg i.p., indomethacin 10 mg/kg, mean ± SD
Description: as §3, §4

rat paw tissue = assay: Histopathological examination of paw tissue (HE); assay type: in vivo; details: carrageenan-injected paw; compounds 200 mg/kg i.p., indomethacin 10 mg/kg
Excerpt: as §4

[3] = system: rat paw tissue dermal collagen; assay: Sirius Red staining of dermal collagen in paw tissue; assay type: in vivo; details: carrageenan-injected paw; compounds 200 mg/kg i.p., indomethacin 10 mg/kg
[4] = listed as compound 3, 200 mg/kg

Structure (SMILES)	COX-2 inhibition % (mean activity) (COX-2)	viability at 31.25 µg/mL [1]	IC50 [1]	concentration above which cells shrink and lose fibroblast-like structure [2]	Ability to feed (Wistar rats)	Change in skin color (Wistar rats)	Death (Wistar rats)	Diarrhea (Wistar rats)	Drowsiness (Wistar rats)	Dyspnea (Wistar rats)	Micturition (Wistar rats)	Seizures (Wistar rats)	Weight loss (Wistar rats)	IL-1α (IL-1α)	IL-6 (IL-6)	MDA level (malondialdehyde (MDA))	COX-1 level (rat cyclooxygenase 1)	histopathological findings of paw tissue (HE) (rat paw tissue)	dermal collagen content and distribution (Sirius Red) [3]	further results
CC1(C)CC(=O)CC2(C1)N=C(N)Nc1nc(C(=O)Nc3ccc(S(N)(=O)=O)cc3)nn12 (centres unmarked) [Compound 2]	98%	99.9%	328 µg/mL (≈ 734 µM)	above 125 µg/mL	Normal	Normal	No	Present	Absent	Absent	Normal	Absent	No	62.82 ± 0.94 ^b pg/mL	16.14 ± 0.16 ^b pg/mL	notable improvements	5.24 ± 0.09 ng/mL	moderate edema	normal dermal collagen; also recorded: normal appearance and distribution	Death (Wistar rats; listed as compound 2, 200 mg/kg): no mortality
NC1=NC2(CCCCCC2)n2nc(C(=O)Nc3ccc(S(N)(=O)=O)cc3)nc2N1 [Compound 1, 5′-Amino-N-(4-sulfamoylphenyl). -1′H-spiro[cycloheptane-1,7′-[1,2,4]triazolo[1,5-a][1,3,5] -triazine] -2′-carboxamide]	98%	99.9%	363 µg/mL (≈ 867 µM)	above 125 µg/mL	Normal	Normal	No	Present	Absent	Absent	Normal	Absent	No	56.97 ± 0.79 ^b pg/mL	14.44 ± 0.26 ^b pg/mL	notable improvements	4.31 ± 0.90 ng/mL	mild inflammatory dermal edema	normal collagen quantity and distribution; also recorded: normal in both quantity and organization	Death (Wistar rats; listed as compound 1, 200 mg/kg): no mortality
NC1=NC2(c3ccccc3Cc3ccccc32)n2nc(C(=O)Nc3ccc(S(N)(=O)=O)cc3)nc2N1 [Compound 3]	99%	99.8%	148 µg/mL (≈ 296 µM)	above 62.5 µg/mL	Normal	Normal	No	Present	Absent	Absent	Normal	Absent	No	40.66 ± 0.43 ^b pg/mL	11.39 ± 0.23 pg/mL	–	2.82 ± 0.08 ng/mL	normal dermis; also recorded: normal dermis without any lesion; also recorded: normal histological structure without edema or lesions	normal dermal collagenous fibers without any lesion; also recorded: complete restoration of normal dermal collagen	Death (Wistar rats; [4]): no mortality; IL-6 (IL-6; listed as C3): 11.39 ± 0.23 ^b pg/mL; MDA level (malondialdehyde (MDA); 200 mg/kg): close to normal; MDA level (malondialdehyde (MDA); [4]): 35.71 ± 0.51 nmol/g tissue
